Molecules are shown by their SMILES. Some results are limits rather than exact numbers.

This series can be described thus: Variable temperature X-ray powder diffraction (VT-XRPD) of Form 3: solid-state thermal stability. The format is physicochemical. How it is done: Variable temperature studies were performed with an Anton Paar TTK450 temperature chamber under computer control through an Anton Paar TCU100 temperature control unit. Typically, the measurements were done with a nitrogen flow through the camera. Two measurement schemes were used, restricted and continuous. In the restricted mode, measurements were made only after the TK450 chamber reached the requested temperature. In the continuous mode, the sample was heated at 10° C./minute and fast scans were measured as the temperature changed. After the pre-selected temperature was reached, the sample was cooled at 35° C./minute. To monitor for changes during the cooling, fast scans were again measured. At 25° C., a slow scan was measured. The temperatures chosen were based on DSC results. For the diffractometer set-up a 10 mm beam mask, 0.04 radian Soller slits and fixed (¼°) divergence and anti-scatter (⅛°) slits were inserted on the incident beam side. A fixed 0.10 mm receiving slit, 0.04 radian Soller slits and a 0.02 mm Nickel filter were inserted on the diffracted beam side. […] With the nitrogen gas supply turned off, the camera returned to ambient conditions. The humidity in the ambient state varies with the humidity in the laboratory, typically 30 to 40%, and with the temperature in the camera. As the temperature is raised, the relative humidity will drop. […]

Turning to `Cn1c(CCCC(=O)O)nc2cc(N(CCCl)CCCl)ccc21` [Form 3, 4-{5-[Bis(2-chloroethyl)amino]-1-methyl-2-benzimidazolyl}butyric acid], the “temperature after which the sample converts to amorphous material” value is > 133 °C. Also, the “solid-solid transformations on heating” value (temperature range of 25° C. to 50° C.) was “No significant, solid-solid transformations”.

Source of the values: US8076366B2, “Forms of bendamustine free base” (Cephalon, Inc., priority 2009, dated 2011).
